Source: patent US12253513B2, “Methods and compositions for the selective lysis of blood cells and separation of microbial cells” (QVELLA CORPORATION, priority 2018, dated 2025)

Tests used:
[1] = tested on: Pseudomonas aeruginosa (PA), Proteus mirabilis (PM), and Staphylococcus aureus (SA); test: Microbial cell intactness: ΔCT by real-time RT-PCR, spiked whole blood samples; type: cell-based; conditions: 0.94% w/v detergent in type 3 reagent/blood mixture; all three species
[2] = tested on: Pseudomonas aeruginosa (PA), Proteus mirabilis (PM), and Staphylococcus aureus (SA); test: Microbial cell intactness: ΔCT by real-time RT-PCR, spiked phosphate buffer samples; type: cell-based; conditions: Triton X-100 0-0.75% w/v with SPS 15 mg/mL, no high pH; all cell types
Protocol: The effect of Triton X-100, one of the components of the type 2 blood lysis reagent, on microbial cell intactness, was experimentally investigated in the absence of a high pH environment (e.g. in the absence of a carbonate-bicarbonate buffer). Experiments were performed by contacting spiked phosphate buffer samples containing Pseudomonas aeruginosa (PA), Proteus mirabilis (PM), and Staphylococcus aureus (SA), prepared according to Example 3 below, with solutions containing Triton X-100 and SPS, such that the final concentrations of Triton X-100 in the various samples were 0, 0.188, 0.375, 0.55 and 0.75% w/v, and the SPS concentration was 15 mg/mL. Sample preparation and real time RT-PCR was performed according to the methods provided in Example 5 below. Spiked phosphate buffer samples, prepared according to the method of Example 3 below, were also prepared for spiked control and subjected to real time RT-PCR according to the method of Example 4 below. The ΔCT value, determined based on the difference between the spiked phosphate buffer sample CT value and the spiked control CT value, was employed as a proxy for microbial cell intactness after exposure to Triton X-100.
Bacterial cell suspension stock of 50 μL, having about 10^3 CFU of respective bacterial cells was added to 5 mL of 1 mM Phosphate Buffer (PB) and mixed by gentle vortexing. […]

Row | Compound | ΔCT, Tween 20 compared with Triton X-100 as non-ionic detergent [1] | ΔCT [2]
1 | CCCCCCCCCCCC(=O)OCCOCCOCCOCCOCCOCCOCCOCCOCCOCCOCCOCCOCCOCCOCCOCCOCCOCCOCCOCCOCC(OCCOCCOCCOCCOCCOCCOCCOCCOCCOCCOCCOCCOCCOCCOCCOCCOCCOCCOCCOCCO)C1OCC(OCCOCCOCCOCCOCCOCCOCCOCCOCCOCCOCCOCCOCCOCCOCCOCCOCCOCCOCCOCCO)C1OCCOCCOCCOCCOCCOCCOCCOCCOCCOCCOCCOCCOCCOCCOCCOCCOCCOCCOCCOCCO (centres unmarked) [Tween 20, Polysorbate 20] | very similar | 
2 | polyethylene glycol p-(1,1,3,3-tetramethylbutyl)-phenyl ether [Triton X-100] |  | ≤ 2
